Consider 15 compounds from US20190308988A1, “OPIOID RECEPTOR ANTAGONIST PRODRUGS” (Nirsum Laboratories, Inc., priority 2017, published 2019).

This data set in a line: Solubility determination in oil (Table 10). Conditions: for solubility at 24 h: 25 °C, Obs. Temp. 25 °C; for solubility at 24 h / solubility / solubility thermodynamic: thermodynamic from solid; for solubility / solubility thermodynamic: 40 °C; for solubility thermodynamic: water, Equilibrium solubility: Water. As to the method:
A known amount of test substance (˜40 mg) was weighed into the vial, 100 μL of oil was added and heated to 60° C. and then system was slurried to reach equilibrium. […] Extra oil was added into the vial once compound precipitated out and then the system was re-equilibrated at 1000 rpm at room temperature (25° C.). Final concentration was determined by HPLC method as described below in Table 6a and 6b.

Setting [1] is: oil or lipid, Approximate Solubility in Excipient: Cottonseed oil, Heating Temp. 60 °C.
Where [2] appears, read: oil or lipid, Approximate Solubility in Excipient: Sesame oil, Heating Temp. 60 °C.
Setting [3] is: oil or lipid, Approximate Solubility in Excipient: Cottonseed oil, Heating Temp. 40 °C, Obs. Temp. 40 °C.
The mark [4] stands for this setting: oil or lipid, Approximate Solubility in Excipient: Sesame oil, Heating Temp. 40 °C, Obs. Temp. 40 °C.
The mark [5] stands for this setting: organic solvent or mixture, Approximate Solubility in Excipient: Ethanol, Heating Temp. 40 °C, Obs. Temp. 40 °C.
The mark [6] stands for this setting: Heating Temp. 40 °C, Obs. Temp. 40 °C.
Where [7] appears, read: oil or lipid, Approximate Solubility in Excipient: Cottonseed oil, Heating Temp. 60 °C, Obs. Temp. 40 °C.
[8] abbreviates: oil or lipid, Approximate Solubility in Excipient: Sesame oil, Heating Temp. 60 °C, Obs. Temp. 40 °C.
Setting [9] is: oil or lipid, Approximate Solubility in Excipient: Castor oil, Heating Temp. 40 °C, Obs. Temp. 40 °C.
Setting [10] is: Heating Temp. 60 °C, Obs. Temp. 40 °C.

In brackets after ≈: the same amount, converted by molar mass.

`C=C1CC[C@@]2(O)C3Cc4ccc(OC(=O)CCCCCCCCCCC/C=C\CCCCCCCC)c5c4[C@@]2(CCN3CC2CC2)[C@H]1O5` [Compound 13, (4aS,7aS,12bS)-3-(cyclopropylmethyl)-4a-hydroxy-7-methylene-2,3,4,4a,5,6,7,7a-octahydro-1H-4,12-methanobenzofuro[3,2-e]isoquinolin-9-yl (Z)-docos-13-enoate]: the solubility (in general, the concentration that dissolves in the medium under given conditions) at 24 h under setting [1] was less than 50 mg/mL and the solubility at 24 h under setting [2] was 91 to 121 mg/mL (≈ 138 to 183 mM). For the same compound, the solubility is greater than 381 mg/mL under setting [3], greater than 406 mg/mL under setting [4] and greater than 214 mg/mL under setting [5]. Under setting [6], the thermodynamic solubility (as a rule, solubility found after equilibrating the solid with the medium) came to 2 µg/mL (≈ 0.00303 mM).

Consider `C=C1CC[C@@]2(O)C3Cc4ccc(OC(=O)CCCCCCCCCCCCCCCCC)c5c4[C@@]2(CCN3CC2CC2)[C@H]1O5` [Compound 12, (4aS,7aS,12bS)-3-(cyclopropylmethyl)-4a-hydroxy-7-methylene-2,3,4,4a,5,6,7,7a-octahydro-1H-4,12-methanobenzofuro[3,2-e]isoquinolin-9-yl stearate], for which the solubility at 24 h runs as follows: under setting [1], less than 51 mg/mL; under setting [2], less than 50 mg/mL. Also, the solubility is, setting by setting: under setting [3], 100 to 120 mg/mL (≈ 165 to 198 mM); under setting [7], greater than 398 mg/mL; under setting [4], 70 to 95 mg/mL (≈ 116 to 157 mM); under setting [8], greater than 411 mg/mL; under setting [5], 65 to 75 mg/mL (≈ 107 to 124 mM). For the same compound, the thermodynamic solubility under setting [6] was found to be 43 µg/mL (≈ 0.071 mM).

With `C=C1CC[C@@]2(O)C3Cc4ccc(OC(=O)CCCCCCC/C=C\C/C=C\CCCCC)c5c4[C@@]2(CCN3CC2CC2)[C@H]1O5` [Compound 37, (4aS,7aS,12bS)-3-(cyclopropylmethyl)-4a-hydroxy-7-methylene-2,3,4,4a,5,6,7,7a-octahydro-1H-4,12-methanobenzofuro[3,2-e]isoquinolin-9-yl (9Z,12Z)-octadeca-9,12-dienoate], the solubility at 24 h by setting is: under setting [1], 68.5 to 82 mg/mL (≈ 114 to 136 mM); under setting [2], 80 to 102 mg/mL (≈ 133 to 169 mM). Further, the solubility runs as follows: under setting [9], greater than 226 mg/mL; under setting [3], greater than 405 mg/mL; under setting [4], greater than 408 mg/mL; under setting [5], 75 to 90 mg/mL (≈ 125 to 150 mM). The compound further displayed a thermodynamic solubility under setting [6] of 2 µg/mL (≈ 0.00332 mM).

Take `C=C1CC[C@@]2(O)C3Cc4ccc(OC(=O)OCCCCCCCCCC)c5c4[C@@]2(CCN3CC2CC2)[C@H]1O5` [Compound 18, (4aS,7aS,12bS)-3-(cyclopropylmethyl)-4a-hydroxy-7-methylene-2,3,4,4a,5,6,7,7a-octahydro-1H-4,12-methanobenzofuro[3,2-e]isoquinolin-9-yl decyl carbonate]: the solubility at 24 h is, setting by setting: under setting [1], greater than 400 mg/mL; under setting [2], greater than 402 mg/mL. The solubility by setting is: under setting [3], greater than 403 mg/mL; under setting [4], greater than 403 mg/mL; under setting [5], greater than 209 mg/mL. The thermodynamic solubility under setting [6] is less than 0.2 µg/mL.

For `CCCCCCCCCCCCCCC(=O)Oc1ccc2c3c1O[C@H]1C(=O)CC[C@@]4(O)C(C2)N(CC2CC2)CC[C@]314` [Compound 58, (4aS,7aR,12bS)-3-(cyclopropylmethyl)-4a-hydroxy-7-oxo-2,3,4,4a,5,6,7,7a-octahydro-1H-4,12-methanobenzofuro[3,2-e]isoquinolin-9-yl pentadecanoate], the solubility at 24 h runs as follows: under setting [1], 102 to 204 mg/mL (≈ 180 to 360 mM); under setting [2], 99.4 to 199 mg/mL (≈ 176 to 351 mM). Besides, the solubility (thermodynamic) under setting [6] turned out to be 1.4 µg/mL (≈ 0.00247 mM).

On to `CCCCCCCCCCCCCCCCCCCC(=O)Oc1ccc2c3c1O[C@H]1C(=O)CC[C@@]4(O)C(C2)N(CC2CC2)CC[C@]314` [Compound 50, (4aS,7aR,12bS)-3-(cyclopropylmethyl)-4a-hydroxy-7-oxo-2,3,4,4a,5,6,7,7a-octahydro-1H-4,12-methanobenzofuro[3,2-e]isoquinolin-9-yl icosanoate], for which the solubility at 24 h under setting [1] is less than 51 mg/mL and the solubility at 24 h under setting [2] is less than 52 mg/mL. Under setting [6], this compound displayed a thermodynamic solubility of less than 1 µg/mL.

For the compound `C=C1CC[C@@]2(O)C3Cc4ccc(OC(=O)CCC5CCCC5)c5c4[C@@]2(CCN3CC2CC2)[C@H]1O5` [Compound 39, (4aS,7aS,12bS)-3-(cyclopropylmethyl)-4a-hydroxy-7-methylene-2,3,4,4a,5,6,7,7a-octahydro-1H-4,12-methanobenzofuro[3,2-e]isoquinolin-9-yl 3-cyclopentylpropanoate], the solubility at 24 h lay in the range of 104 to 139 mg/mL (≈ 224 to 300 mM) under setting [1] and 106 to 141 mg/mL (≈ 229 to 304 mM) under setting [2]. Besides, the solubility is greater than 218 mg/mL under setting [9], 225 to 402 mg/mL (≈ 485 to 868 mM) under setting [3], greater than 400 mg/mL under setting [4] and 150 to 200 mg/mL (≈ 324 to 431 mM) under setting [5]. For the same compound, the solubility (thermodynamic) under setting [6] amounted to 18 µg/mL (≈ 0.0388 mM).

In the case of `C=C1CC[C@@]2(O)[C@H]3Cc4ccc(O)c5c4[C@@]2(CCN3CC2CC2)[C@H]1O5` [61 (Nalmefene)], under setting [10], the “Approximate Solubility in Excipient: Cottonseed oil” value is less than 25.0 mg/mL, the “Approximate Solubility in Excipient: Ethanol” value lay within 102 to 137 mg/mL, the “Approximate Solubility in Excipient: Sesame oil” value is less than 25.5 mg/mL and the “Equilibrium solubility: Water” value came to 0.025 mg/mL.

In the case of `CCCCCCCCCCCCCCCCOC(=O)OCOc1ccc2c3c1O[C@H]1C(=O)CC[C@@]4(O)C(C2)N(CC2CC2)CC[C@]314` [Compound 47, (((4aS,7aR,12bS)-3-(cyclopropylmethyl)-4a-hydroxy-7-oxo-2,3,4,4a,5,6,7,7a-octahydro-1H-4,12-methanobenzofuro[3,2-e]isoquinolin-9-yl)oxy)methyl hexadecyl carbonate], the solubility at 24 h runs as follows: under setting [1], greater than 406 mg/mL; under setting [2], greater than 405 mg/mL. For the same compound, under setting [6], the solubility (thermodynamic) was less than 1 µg/mL.

On to `C=C1CC[C@@]2(O)C3Cc4ccc(OC(=O)OCCCCCCCCCCCCCCCCCC)c5c4[C@@]2(CCN3CC2CC2)[C@H]1O5` [Compound 33, (4aS,7aS,12bS)-3-(cyclopropylmethyl)-4a-hydroxy-7-methylene-2,3,4,4a,5,6,7,7a-octahydro-1H-4,12-methanobenzofuro[3,2-e]isoquinolin-9-yl octadecyl carbonate], for which the solubility at 24 h was less than 50 mg/mL under setting [1] and less than 51 mg/mL under setting [2]. The thermodynamic solubility under setting [6] was less than 1 µg/mL.

As for `C=C1CC[C@@]2(O)C3Cc4ccc(OC(=O)CC(C)(C)C)c5c4[C@@]2(CCN3CC2CC2)[C@H]1O5` [Compound 38, (4aS,7aS,12bS)-3-(cyclopropylmethyl)-4a-hydroxy-7-methylene-2,3,4,4a,5,6,7,7a-octahydro-1H-4,12-methanobenzofuro[3,2-e]isoquinolin-9-yl 3,3-dimethylbutanoate], the solubility was greater than 248 mg/mL under setting [9], greater than 407 mg/mL under setting [3], 230 to 411 mg/mL (≈ 526 to 939 mM) under setting [4] and 160 to 200 mg/mL (≈ 366 to 457 mM) under setting [5]. The thermodynamic solubility was 617 µg/mL (≈ 1.41 mM) under setting [6] and 210 µg/mL (≈ 0.48 mM) under setting [10].

With `C=C1CC[C@@]2(O)C3Cc4ccc(OC(=O)CCCCCCC/C=C\C/C=C\C/C=C\CC)c5c4[C@@]2(CCN3CC2CC2)[C@H]1O5` [Compound 20, (4aS,7aS,12bS)-3-(cyclopropylmethyl)-4a-hydroxy-7-methylene-2,3,4,4a,5,6,7,7a-octahydro-1H-4,12-methanobenzofuro[3,2-e]isoquinolin-9-yl (9Z,12Z,15Z)-octadeca-9,12,15-trienoate], the solubility at 24 h runs as follows: under setting [1], 68 to 82 mg/mL (≈ 113 to 137 mM); under setting [2], 80 to 100 mg/mL (≈ 133 to 167 mM). Besides, the solubility was greater than 414 mg/mL under setting [3], greater than 406 mg/mL under setting [4] and 157 to 197 mg/mL (≈ 262 to 328 mM) under setting [5]. Moreover, under setting [6], the solubility (thermodynamic) is less than 0.2 µg/mL.

`CCCCCCCCCCCCCCCCCCCCCC(=O)Oc1ccc2c3c1O[C@H]1C(=O)CC[C@@]4(O)C(C2)N(CC2CC2)CC[C@]314` [Compound 51, (4aS,7aR,12bS)-3-(cyclopropylmethyl)-4a-hydroxy-7-oxo-2,3,4,4a,5,6,7,7a-octahydro-1H-4,12-methanobenzofuro[3,2-e]isoquinolin-9-yl docosanoate] came in with a solubility at 24 h under setting [1] of less than 50 mg/mL and a solubility at 24 h under setting [2] of less than 46 mg/mL. For the same compound, the solubility (thermodynamic) under setting [6] is less than 1 µg/mL.

As for `CCCCCCCC/C=C\CCCCCCCCCCCC(=O)Oc1ccc2c3c1O[C@H]1C(=O)CC[C@@]4(O)C(C2)N(CC2CC2)CC[C@]314` [Compound 22, (4aS,7aR,12bS)-3-(cyclopropylmethyl)-4a-hydroxy-7-oxo-2,3,4,4a,5,6,7,7a-octahydro-1H-4,12-methanobenzofuro[3,2-e]isoquinolin-9-yl (Z)-docos-13-enoate], the solubility at 24 h runs as follows: under setting [1], 67 to 80 mg/mL (≈ 101 to 121 mM); under setting [2], 67 to 80 mg/mL (≈ 101 to 121 mM). For the same compound, the solubility was greater than 406 mg/mL under setting [7]; greater than 402 mg/mL under setting [8]; greater than 398 mg/mL (organic solvent or mixture, Approximate Solubility in Excipient: Ethanol, Heating Temp. 60 °C, Obs. Temp. 40 °C). Under setting [10], this compound gave a solubility (thermodynamic) of 31.4 µg/mL (≈ 0.0474 mM).

`CCCCCCCC/C=C/CCCCCCCC(=O)OCOc1ccc2c3c1O[C@H]1C(=O)CC[C@@]4(O)C(C2)N(CC2CC2)CC[C@]314` [Compound 26, (((4aS,7aR,12bS)-3-(cyclopropylmethyl)-4a-hydroxy-7-oxo-2,3,4,4a,5,6,7,7a-octahydro-1H-4,12-methanobenzofuro[3,2-e]isoquinolin-9-yl)oxy)methyl (E)-octadec-9-enoate]: the solubility at 24 h is 204 to 239 mg/mL (≈ 321 to 376 mM) under setting [1] and less than 354 mg/mL under setting [2]. This compound also gave a thermodynamic solubility under setting [6] of less than 1 µg/mL.
